Data published in US10539578B2, “Method for diagnosing, treating, or preventing mood disorders” (JAPAN TOBACCO INC., priority 2015, dated 2020).

Assays:
[1] = tested on: C57BL/6NCrS1c mice; test: Tail suspension test of mice after nasal administration of SITH-1-expressing adenovirus; type: in vivo; settings: 80 mg/L Fluoxetine solution as drinking water from 2 weeks before SITH-1/Adv; test 7 days after nasal administration
Experimental: 8-week-old C57BL/6NCrS1c mice were raised at a room temperature of 24±1° C. and with lights on for 12 hours and off for 12 hours. After each of the mice was anesthetized with use of isoflurane, SITH-1/Adv or empty/Adv in an amount equivalent to 2.5×10^7 ifu was dropped into the nasal cavity, and was then sucked by the mice along with breathing. Then, the mice were returned to raising cages.
7 days after the nasal administration of SITH-1/Adv or empty/Adv, a tail suspension test was carried out for 10 minutes. A period of immobility time was measured with use of TailSuspScanTopScan (CleverSys, Inc.). The tail suspension test was carried out by suspending each mouse by taping the tail 1 cm from the end. […] In the experiment, 30 mice were used in each group.
Statistical significance (* indicates P<0.05, ** indicates P<0.01, and *** indicates P<0.001) was calculated by use of the Mann-Whitney U-test.
Then, it was studied whether or not an SSRI (selective serotonin reuptake inhibitor), which is an antidepressant, would suppress an increase in immobility time, the increase being caused by the nasal administration of the SITH-1/Adv. 80 mg/L of Fluoxetine solution as drinking water was given to 6-week-old mice, and then the mice were raised for 2 weeks. Then, SITH-1/Adv was nasally administered. 7 days after the nasal administration, a tail suspension test was carried out for 10 minutes. […]

[2] = tested on: HHV-6 variant B HST strain; test: SITH-1 expression in HHV-6-infected U373 cells in the presence of ganciclovir (Real-time PCR); type: cell-based; settings: U373 cultured overnight with drug, one day after infection, relative to ganciclovir(−)
Experimental: In the presence of ganciclovir, human glial cell lines (U373) were infected with HHV-6, and SITH-1 expression levels in the infected cells was detected by use of Real-time PCR.
The U373 cells were cultured overnight in the presence of ganciclovir at concentrations indicated in the graph. Thereafter, the U373 cells were infected with HHV-6 variant B HST strain, and after one day had passed after this infection, the SITH-1 expression levels in the cells were detected by use of Real-time PCR.
With regards to an effective concentration of ganciclovir against HHV-6 variant B, IC50 was presumed to be approximately 10 μM. As such, three concentration levels obtained by 3-fold dilution were used, with 10 μM being a median amount.
FIG. 25 illustrates suppression of SITH-1 expression by ganciclovir. The vertical axis of FIG. 25 represents SITH-1 mRNA expression level as a ratio, where 1 is the ratio for ganciclovir(−). […] When ganciclovir was used in an amount of 3 μM, 10 μM, and 30 μM, SITH-1 mRNA expression levels were reduced by approximately 20%, 40%, and 80% or more, respectively.

[3] = tested on: HHV-6 variant B; settings: presumed value used to choose test concentrations; read-out: IC50 (effective concentration against HHV-6 variant B); cited from earlier work
[4] = tested on: HHV-6 HST strain; test: Suppression of SITH-1 expression by heparin and anti-heparan sulfate peptide in HHV-6-infected U373 cells; type: cell-based; settings: 10 unit/mL reacted with U373 cells at 4° C. for 1 hour before infection; MOI 3; 48 hours
Experimental: U373 astrocytoma cells were removed with use of trypsin-EDTA, and then a medium (10% FBS-containing DMEM) was added, so that the resultant cells were at 1×10^5 cell/mL. Then, the U373 cells were reacted with 10 unit/mL of Novo-Heparin (Mochida Pharmaceutical Co., Ltd.) or 0.1 mM of anti-3-OS Heparan sulfate (HS) peptide trifluoroacetate salt (Sigma-Aldrich) at 4° C. for 1 hour. The U373 cells were also reacted only with a medium as a control at 4° C. for 1 hour. The resultant cells were washed 3 times with a medium. Then, the U373 cells thus washed were infected with a HHV-6 HST strain virus fluid (2.9×10^6 ffu/ml) at a MOI of 3 by centrifugation. Then, the infected cells were cultured at 37° C. for 48 hours in a CO2 incubator.
From the resultant infected cells, RNA was purified by use of an RNeasy Mini Kit (Qiagen) in accordance with the standard protocol. Then, cDNA was synthesized by use of a PrimeScript RT Reagent Kit (Takara Bio). Finally, expression levels of SITH-1 and GAPDH mRNA were measured by a method similar to that used in the above (3.1).

[5] = tested on: HEK293 cells; test: Effect of intracellular protein expression on intracellular calcium concentration (Fluo 4-AM fluorescence); type: cell-based; settings: protein temporarily overexpressed in HEK293 cells, 24 hours after transfection; vs control vector (S-C protein: vs SITH-1-expressing cell)
Excerpt: In order to express SITH-1, the S-C protein, and the C-S protein intracellularly, pFLAG-CMV-5b (SIGMA-ALDRICH), which is an expression vector for mammals, was used to construct SITH-1/pFLAG-CMV-5b, SITH-CAML/pFLAG-CMV-5b, and CAML-SITH/pFLAG-CMV-5b. In each of the fusion proteins, the spacer (SEQ ID NO: 6) shown in FIG. 1 was inserted between SITH-1 and CAML. pFLAG-CMV-5b was used as a control. Each vector was transfected into HEK293 cells by use of a CalPhos (trademark) Mammalian Transfection Kit (Takara Bio), such that each protein was temporarily overexpressed intracellularly.
A Calcium Kit II-Fluo 4 (Dojindo) was used to cause cells to take up Fluo 4-AM, 24 hours after transfection. Thereafter, an ArrayScan XTI System (ThermoFisher Scientific) was used to measure fluorescence intensities (λex=485 nm, λem=518) in cells expressing the various proteins (700 to 1300 cells per protein type).
FIG. 26 indicates the effects of SITH-1 expression, S-C protein expression, and C-S protein expression on intracellular calcium concentration. Median, maximum, and minimum values are indicated as a box-and-whisker plot. Statistical significance (′ indicates P<0.01) was determined via a multiple comparison test using Scheffe's method.

Molecule: CNCCC(Oc1ccc(C(F)(F)F)cc1)c1ccccc1 (stereo not shown) [Fluoxetine]
- immobility time increases in SITH-1/Adv nasal administration mice (tail suspension test) [1]: suppressed

Molecule: Nc1nc(O)c2ncn(COC(CO)CO)c2n1 [ganciclovir]
- SITH-1 mRNA expression level reduced by ([2]; ganciclovir 3 μM): approximately 20%
- SITH-1 mRNA expression level reduced by ([2]; ganciclovir 10 μM): ~40%
- SITH-1 mRNA expression level reduced by ([2]; ganciclovir 30 μM): ≥ 80%
- IC50 [3]: ~10 µM

Molecule: heparin
- SITH-1 expression in U373 cells [4]: suppressed

B1: SITH-1: HHV-6 latent infection protein, 159 amino acids, SEQ ID NO: 1 (protein)
chain: MGYEEKVSATGKTRLKILACLIVLILAAAITMLTLEIISNQKRTTTDLEAVTVALKHVSTSLASCTESTTSVHTDSVTSQPTKNKESRKKIEGKSPSWVQALTTASGIILLFCIMMIFITCSWTTEKDTEKSEVQSYASSVETLDSLNEAIIPKTEMNV
modifications: Human herpesvirus 6
- intracellular calcium concentration [5]: increased
